Experiments:
[1] = system: rat mixed glial culture; assay: Neurogenesis promoting effect in rat mixed glial culture (neuronal differentiation, beta-tubulin III ELISA); type: cell-based; conditions: Rattus norvegicus, 72 h, 1 μM compound + rhIGF-1 100 ng/ml, 3 days; control (only rhIGF-1) = 100%; absorbance 450 nm; read-out: Ratio of absorbance of compound-supplemented group to control (%)
Protocol: The hippocampus and the cerebral cortex were excised from each of 3-day-old SD rats. A cell suspension was prepared therefrom using a neuron dispersion kit (Sumitomo Bakelite Co., Ltd., MB-X9901) and inoculated at concentration of 10^5 cells/well to a 96-well plate coated with type I collagen (AGC Techno Glass Co., Ltd., 4860-010). The cells were cultured in a growth medium (D-MEM/F12 containing 10% FBS and PS) at 37° C. for 4 days under 5% CO2 conditions.
After the culture, the medium was replaced by a differentiation medium (D-MEM/F12 containing PS), and rhIGF-1 (R&D Systems, 291-G1-250, final concentration: 100 ng/ml) and 1 μM compound were added thereto. The cells were further cultured for 3 days. The cultured cells were fixed in 4% paraformaldehyde-PBS (Muto Pure Chemicals Co., Ltd.), subjected to membrane permeation treatment with 0.1% Triton X-100 PBS, and blocked with Block Ace solution (DS Pharma Biomedical Co., Ltd., UK-B80). Anti-neuron-specific class III beta-tubulin Antibody (R&D Systems, MAB1195, clone Tuj-1) was diluted 1000-fold and used as a primary antibody. Anti-Mouse Ig, HRP-Linked F(ab′)2 Fragment Sheep (GE Healthcare, NA9310) was diluted 10000-fold and used as a secondary antibody. A plate washer (BIO-TEK INSTRUMENTS ELX405) was used in washing operation. TMB Microwell Peroxidase Substrate System (Kirkegaard & Perry Laboratories, 50-76-00) was used in color reaction, which was performed for 10 minutes and stopped by addition of 1 M phosphoric acid. Absorbance at 450 nm was measured using a plate reader (Labsystems Multiskan BICHROMATIC).
The rate of increase in the absorbance of the compound-supplemented group (compound+rhIGF-1) relative to that of a compound-unsupplemented group (control, only rhIGF-1) as 100% was determined in terms of % control.

[2] = system: Tg2576 mice; assay: Cognitive function improving effect in novel object recognition test; type: in vivo, mouse; conditions: 10 mg/kg/day orally for 3 consecutive weeks, female Tg2576 mice; recovery ratio relative to wild type and vehicle
Protocol: Eight- to 9-month-old female Tg2576 mice were used, and wild-type littermates were used as control mice. All the mice were raised in a room having a temperature of 23±3° C. and 12-hour light/dark cycles (light phase: 7 a.m. to 7 p.m.) and allowed to freely take food (Oriental Yeast Co., Ld.) and water.
The body weights and blood glucose levels of the Tg2576 mice were measured, and these mice were divided (n=11-15) so that there was no difference among groups. 10 mg/kg/day compound or vehicle (0.5% methylcellulose solution, Wako Pure Chemical Industries, Ltd.) was orally administered to each mouse for 3 consecutive weeks. The following novel object recognition test was conducted (acquisition trial and retention trial were carried under blind): 4 or 5 mice in one cage were placed in a box of 30×30×30 cm and acclimatized for 30 minutes in the absence of objects. On the next day, two identical objects were placed in diagonally opposite corners of the box. The mice were placed in the box, and the time spent exploring the objects for 5 minutes was recorded (acquisition trial). 24 hours later, one of the objects was in turn replaced by a novel one, and the same test as the acquisition trial was conducted (retention trial). During the test, places were appropriately changed between the two objects to minimize environmental/behavioral psychological factors. The ratio of the time spent exploring the novel object to the whole exploring time was calculated as an index showing cognitive functions and used as preference index (PI). Furthermore, a recovery ratio was calculated according to the following formula:
[Recovery ratio]=[[PI of Tg2576 mice treated by each compound]−[PI of Tg2576 mice treated by vehicle]]/[[PI of wild type mice]−[PI of Tg2576 mice treated by vehicle]]×100(%).
In this context, individuals that explored neither of the objects in the acquisition trial and the retention trial were excluded from this test.

[3] = system: Akt; assay: Akt protein degradation inhibitory effect in rat mixed glial culture (Western blot); type: cell-based; conditions: 1 μM compound + rhIGF-1 100 ng/ml, 10 minutes; unsupplemented = 100%, only rhIGF-1 = 0%; Akt corrected with ERK
Protocol: The mixed glial cells used in Experimental Example 1 were inoculated at a concentration of 4×10^6 cells/well to a 6-well plate coated with type I collagen (AGC Techno Glass Co., Ltd.). The cells were cultured in a growth medium (D-MEM/F12 containing 10% FES and PS) at 37° C. for 4 days under 5% CO2 conditions. Then, the medium was replaced by a serum-free medium (D-MEM/F12 containing PS), and the cells were cultured at 37° C. for 4 days under 5% CO2 conditions to remove serum.
Next, rhIGF-1 (R&D Systems, 291-G1-250, final concentration: 100 ng/ml) and 1 μM compound were added thereto and reacted for 10 minutes in a temperature-controlled water bath set to 37° C. […]
Proteins were collected from the cell extracts using trichloroacetic acid and quantified according to the Lowry method. […] The cell extracts were diluted with RIPA so that the protein levels were constant among the test solutions on the basis of the measured values (10 μg/lane). […] Bands were detected using ImmunoStar reagent (Wako Pure Chemical Industries, Ltd., 291-55203) and an X-ray film. The results were quantified using GS-800 Calibrated Densitometer manufactured by Bio-Rad Laboratories, Inc., and band intensity was digitized by multiplying the absorbance of the Akt- or ERK-1&2-derived band by an area. […]

## COc1ccc(N2CCN(c3ccc(F)cc3)CC2)c(-c2ccc(N(C)C)cc2)n1 [Example 12, 4-{3-[4-(4-fluorophenyl)piperazin-1-yl]-6-methoxypyridin-2-yl}-N,N-dimethylaniline]
[1]
  activity at 1 µM: 345%
[2]
  Preference index (% recovery): 70.3%

## COc1ccc(N2CCN(c3ccc(OC)nc3-c3ccc(N(C)C)cc3)CC2)cc1 [Example 19, 4-{6-methoxy-3-[4-(4-methoxyphenyl)piperazin-1-yl]pyridin-2-yl}-N,N-dimethylaniline]
[1]
  activity at 1 µM: 263%
[3]
  Akt degradation inhibitory rate (%): 97%
[2]
  Preference index (% recovery): 118.2%

## COc1ccc(N2CCN(c3ccc(C)cc3)CC2)c(-c2ccc(N(C)C)cc2)n1 [Example 25, 4-{6-methoxy-3-[4-(4-methylphenyl)piperazin-1-yl]pyridin-2-yl}-N,N-dimethylaniline]
[1]
  activity at 1 µM: 276%
[3]
  Akt degradation inhibitory rate (%): 140%
[2]
  Preference index (% recovery): 97.0%

## CCOc1ccc(-c2nc(OC)ccc2N2CCN(c3ccc(OC)cc3)CC2)cc1 [Example 55, 1-[2-(4-ethoxyphenyl)-6-methoxypyridin-3-yl]-4-(4-methoxyphenyl)piperazine]
[1]
  activity at 1 µM: 316%
[2]
  Preference index (% recovery): 19.8%

## COc1ccc(N2CCN(c3c(C)cc(OC)nc3-c3ccc(N(C)C)cc3)CC2)cc1 [Example 159, 4-{6-methoxy-3-[4-(4-methoxyphenyl)piperazin-1-yl]-4-methylpyridin-2-yl}-N,N-dimethylaniline]
[1]
  activity at 1 µM: 611%

## COc1ccc(N2CCN(c3ccc(OC)nc3-c3ccoc3)CC2)cc1 [Example 160, 1-(2-furan-3-yl-6-methoxypyridin-3-yl)-4-(4-methoxyphenyl)piperazine]
[1]
  activity at 1 µM: 220%

## CCOc1ccc(-c2nc(OC)cc(C)c2N2CCN(c3ccc(OC)cc3)CC2)cn1 [Example 168, 6′-ethoxy-6-methoxy-3-[4-(4-methoxyphenyl)piperazin-1-yl]-4-methyl-2,3′-bipyridine]
[1]
  activity at 1 µM: 584%

## COc1ccc(N2CCN(c3ccc(OC)nc3-c3cnn(C)c3)CC2)cc1 [Example 169, 1-[6-methoxy-2-(1-methyl-1H-pyrazol-4-yl)pyridin-3-yl]-4-(4-methoxyphenyl)piperazine]
[1]
  activity at 1 µM: 255%

## COc1ccc(N2CCN(c3ccc(OC)nc3-c3ccc4c(cnn4C)c3)CC2)cc1 [Example 171, 5-{6-methoxy-3-[4-(4-methoxyphenyl)piperazin-1-yl]pyridin-2-yl}-1-methyl-1H-indazole]
[1]
  activity at 1 µM: 312%

## COc1ccc(N2CCN(c3ccc(OC)nc3-c3ccc(N4CCOCC4)cc3)CC2)cc1 [Example 174, 4-(4-{6-methoxy-3-[4-(4-methoxyphenyl)piperazin-1-yl]pyridin-2-yl}phenyl)morpholine]
[1]
  activity at 1 µM: 390%

— patent US20130005710A1, “AMINOPYRIDINE DERIVATIVE” (priority 2009, published 2013)
